Reference: article PMC7143510, “In Vitro Efficiency of Antimicrobial Peptides against Staphylococcal Pathogens Associated with Canine Pyoderma” (Animals : an Open Access Journal from MDPI, 2020)
Where no end group is shown, it is not given here.

How the values were obtained:
[1] = tested on: canine S. pseudintermedius strains; assay: MIC, broth microdilution (CLSI); type: cell-based, Staphylococcus pseudintermedius
Protocol: (§1) Sixty-six well-characterized staphylococcal strains (60 S. pseudintermedius and 6 S. aureus strains) were selected from the archived previously described collection. This study was conducted based on a retrospective analysis of staphylococcal canine strains isolated and archived at the Laboratory of Department of Medical Microbiology of MUG during routine clinical laboratory procedures. All samples were routinely collected by a veterinarian during the course of infection treatment or control visits, not specifically for this research. The animals were swabbed only after the owner’s consent was given, as we stated in the previous published study.
(§2) Staphylococcal strains were classified as multidrug-resistant (MDR) when they were not susceptible to at least one agent in three different classes of antimicrobials. Sixty examined S. pseudintermedius strains included thirty multidrug-resistant strains (MDRSP) and seven methicillin-resistant strains (MRSP). Six canine S. aureus strains, including three multidrug-resistant strains (MDRSA). S. pseudintermedius strains, including MDRSP (n = 30) and MRSP (7) strains, were resistant to: amoxicillin (61.6%), clindamycin (48.3%), erythromycin (45%), gentamicin (33.3%), chloramphenicol (26.6%), sulfamethoxazole/trimethoprim (25%), tetracycline (20%), cefadroxil (11.6%), oxacillin (11.6%) and ciprofloxacin (10%). Six S. aureus strains, including MDRSA (n = 3), were resistant to: amoxicillin (3/6), erythromycin (3/6), gentamicin (3/6), clindamycin (2/6), chloramphenicol (1/6), sulfamethoxazole/trimethoprim (1/6) and doxycycline (1/6). The following reference strains were used: S. aureus ATCC 6538 (MSSA), S. aureus ATCC 43300 (MRSA), S. intermedius PCM 2405. Both the reference- and clinical strains were stored at −80 °C in Tryptic Soy Broth (TSB, Becton–Dickinson, USA) supplemented with 15% glycerol.
(§3) The antimicrobial susceptibility of each strain to the tested peptides was determined using the minimal inhibitory concentrations (MIC) microdilution method as recommended by the Clinical Laboratory Standards Institute (CLSI) guidelines. Briefly, the staphylococcal strains were grown overnight on a Columbia blood agar (Graso Biotech, Poland) at 37 °C. Isolated colonies were suspended in saline solution and adjusted to a 0.5 McFarland standard. The bacterial suspension was diluted ~ 1:100 to a final concentration of 1 × 10^6 colony forming units (cfu/mL). Two-fold serial dilutions of each tested peptide in Mueller–Hinton Broth 2 (Sigma–Aldrich) were added (100 µL) to polypropylene 96-well plates containing bacterial inoculum (100 µL) and were incubated at 37 °C for 18 h. All clinical and reference strains were tested in duplicate. Bacterial growth was assessed visually after incubation and MIC was recorded as the lowest drug concentration at which an observable growth was inhibited. The MIC50 and MIC90 values were defined as the lowest concentrations of peptides at which 50% and 90% of the strains were inhibited, respectively.

canine S. aureus strains [2] = assay: MIC, broth microdilution (CLSI); type: cell-based, Staphylococcus aureus
Protocol: as §1, §2, §3

canine S. aureus strains [3] = assay: MBC, subculture from MIC assay; type: cell-based, Staphylococcus aureus; details: 48 h
Protocol: (§4) The loopful (10 µl) of the tested sample was transferred to Triptic Soy Broth (TSB, BD Difco) and incubated at 37 °C for 48 h. MBC was taken as the lowest concentration of each peptide at which staphylococcal colonies were no longer viable on the subculture.

[4] = tested on: canine S. pseudintermedius strains; assay: MBC, subculture from MIC assay; type: cell-based, Staphylococcus pseudintermedius; details: 48 h
Protocol: as §4

[5] = canine S. pseudintermedius (I), 60 strains, Mueller–Hinton Broth 2, 1 × 10^6 cfu/mL, 37 °C, 18 h, visual, duplicate
[6] = canine S. pseudintermedius (I), 60 strains, lowest concentration inhibiting 50% of strains
[7] = canine S. pseudintermedius (I), 60 strains, lowest concentration inhibiting 90% of strains
[8] = canine S. aureus (II), 6 strains, Mueller–Hinton Broth 2, 1 × 10^6 cfu/mL, 37 °C, 18 h, visual, duplicate
[9] = canine S. aureus (II), 6 strains, lowest concentration inhibiting 50% of strains
[10] = canine S. aureus (II), 6 strains, lowest concentration inhibiting 90% of strains
[11] = canine S. aureus (II), 6 strains, 10 µl subcultured in TSB, 37 °C
[12] = canine S. pseudintermedius (I), 60 strains, 10 µl subcultured in TSB, 37 °C

Substance	MIC50 ([1]; 18 h)	MIC90 ([1]; 18 h)	MIC Median (IQR) ([1]; 18 h)	MIC50 (canine S. aureus strains [2]; canine strains, 18 h)	MIC90 (canine S. aureus strains [2]; canine strains, 18 h)	MIC Median (IQR) (canine S. aureus strains [2]; canine strains, 18 h)	MBC Median (IQR) (canine S. aureus strains [3]; canine strains)	MBC Median (IQR) [4]	MIC Median (IQR) [1, 5]	MIC50 [1, 6]	MIC90 [1, 7]	MIC Median (IQR) (canine S. aureus strains [2]; [8])	MIC50 (canine S. aureus strains [2]; [9])	MIC90 (canine S. aureus strains [2]; [10])	MBC Median (IQR) (canine S. aureus strains [3]; [11])	MBC Median (IQR) [4, 12]
FLPLIGRVLSGIL-NH2 [Temporin A]	8 µg/mL	8 µg/mL	8 (4–8) µg/mL	8 µg/mL	8 µg/mL	8 (8–8) µg/mL	8 (8–14) µg/mL	8 (8–8) µg/mL								
GIGKFLKKAKKFGKAFVKILKK-NH2 [Pexiganan]	4 µg/mL	4 µg/mL	4 (2–4) µg/mL	4 µg/mL	8 µg/mL	6 (4–8) µg/mL	8 (8–8) µg/mL	4 (2–4) µg/mL								
KWKLFKKIGAVLKVL-NH2 [CAMEL]									2 (2–4) µg/mL	2 µg/mL	4 µg/mL	4 (4–4) µg/mL	4 µg/mL	4 µg/mL	4 (4–4) µg/mL	4 (2–4) µg/mL
GLFDIIKKIAESF-NH2 [Aurein 1.2]									32 (32–32) µg/mL	32 µg/mL	32 µg/mL	128 (128–128) µg/mL	128 µg/mL	256 µg/mL	128 (128–224) µg/mL	64 (64–64) µg/mL
GLFDVIKKVASVIGGL-NH2 [Citropin 1.1]	4 µg/mL	4 µg/mL	4 (4–4) µg/mL	8 µg/mL	16 µg/mL	8 (8–14) µg/mL	12 (8–16) µg/mL	4 (4–4) µg/mL								
GVIDAAKKVVNVLKNLF-NH2 [Uperin 3.6]	2 µg/mL	2 µg/mL	2 (2–2) µg/mL	8 µg/mL	16 µg/mL	8 (8–14) µg/mL	16 (16–16) µg/mL	2 (2–4) µg/mL								
